This note sets out measurements from US11834450B2, “Compounds having ((3-nitrophenyl)sulfonyl)acetamide as BCL-2 inhibitors” (Eil Therapeutics, Inc., priority 2021, dated 2023).

Data set [1] can be described thus: Cell viability assay HEK293 (CellTiter-Glo). In kind it is cell-based. The settings on record: human, HEK293 cells, read-out: HEK293 (CC50 code). The procedure:
(§1) Assay Condition: Used culture medium for HEK293-DMEM (PanEco, Cat #C420), for the rest of the cell lines—culture medium RPMI-1640 (PanEco, Cat #C363).
(§2) Assay Procedure: Compounds were prepared as 200× stocks with serial dilution in 100% DMSO with a final concentration of 1×. Dispersed 40 μl in 384-well plates at a concentration of 2000 cells per well for HEK293 and at a concentration of 4000 cells per well for the rest of the cell lines using a robotic station Biomek (Beckman). Before adding compounds, the cells were incubated at 37° C. (HEK293 were incubated for a day before adding compounds).
(§3) A dilution plate was prepared by pouring 78 μl of the appropriate culture medium using a robotic station Biomek (Beckman). Sequentially, using a robotic station, 2 μl of substances were taken and added to 78 μl of culture medium (dilution of compounds 40×). Took from there 10 μl and added to the plates to the cells (dilution of compounds 5×). The plates were incubated for 3 days at a temperature 37° C. After 3 days, 10 μl of CellTiter-Glo (Promega) was added to the cells and the luminescence was measured.

A further data set concerns MOLT-4 cells. As to the kind of experiment: Cell viability assay MOLT-4 (CellTiter-Glo). In kind it is cell-based. The following applies: Homo sapiens, 72 h; MOLT-4 cells, 3 days, CellTiter-Glo; read-out: MOLT-4 (CC50 code). The procedure:
as §1, §2, §3
A general note: In ATP-based viability assays light output follows the ATP content of the culture.

In data set [2] the test system is caspase-3 and -7 activities in RS4-11 cells. As to the kind of experiment: Cas-3/7 activation (Caspase-Glo 3/7) in RS4-11 cells. In kind it is cell-based. The following applies: Homo sapiens, 3.5 h at 37° C. and 30 min at r.t., read-out: Cas-3/7 (EC50 code). As for the experimental part: Assay Principle: The Caspase-Glo 3/7 Assay is homogeneous, luminescent assay that measures caspase-3 and -7 activities. The assay provides a luminogenic caspase-3/7 substrate, which contains the tetrapeptide sequence DEVD, in a reagent optimized for caspase activity.
Assay Procedure: Incubate RS4-11 cells with varying concentrations of test compounds for 3.5 h in a humidified incubator at 37° C. and 5% CO2 and 30 min at r.t. Add 15 μl Caspase-Glo reagent to each well and incubate the plate for 30 min at r.t. Read on ClarioStar Plus instrument.
Materials: Promega Caspase-Glo (Promega, #8212); Frozen RS4-11 cells; 384-well white plate (Corning, #3570).
Instrumentation: ClarioStar Plus; Biomek FX for liquid handling (Beckman Coulter).

The next data set has as its system RS4-11 cells. As to the kind of experiment: Cell viability assay RS4-11 (CellTiter-Glo). In kind it is cell-based. The settings on record: Homo sapiens, 72 h; RS4-11 cells, 3 days, CellTiter-Glo; read-out: RS4-11 (CC50 code). As for the experimental part:
as §1, §2, §3

A further data set deals with T1, BCL-2 (Homo sapiens, UniProt P10415).
T1 construct: purchased BPS Bioscience #50222
T1 sequence (P10415 whole entry): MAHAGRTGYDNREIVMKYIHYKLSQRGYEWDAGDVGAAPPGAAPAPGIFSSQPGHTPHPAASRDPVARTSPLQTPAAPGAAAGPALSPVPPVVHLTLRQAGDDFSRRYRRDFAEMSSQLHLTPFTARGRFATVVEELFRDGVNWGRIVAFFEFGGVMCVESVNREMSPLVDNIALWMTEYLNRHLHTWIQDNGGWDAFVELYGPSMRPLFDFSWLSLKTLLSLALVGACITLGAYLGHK
As to the kind of experiment: BCL-2 TR-FRET Assay (primary PPI inhibition). In kind it is binding. The following applies: 60 min incubation; read-out: BCL2 (IC50 code, BCL-2 TR-FRET). Background: TR-FRET usually uses a lanthanide donor and a delayed reading to cut background.

In a further data set the target is T2, BCL-XL (Homo sapiens, UniProt Q07817).
T2 construct: purchased BPS Bioscience #50223
T2 sequence (Q07817 whole entry): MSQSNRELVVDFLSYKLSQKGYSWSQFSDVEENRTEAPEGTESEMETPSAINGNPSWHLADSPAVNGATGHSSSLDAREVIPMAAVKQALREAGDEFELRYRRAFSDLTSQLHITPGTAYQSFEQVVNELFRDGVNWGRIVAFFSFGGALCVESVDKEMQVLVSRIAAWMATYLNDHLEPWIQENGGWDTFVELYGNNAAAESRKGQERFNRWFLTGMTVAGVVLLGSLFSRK
As to the kind of experiment: BCL-XL TR-FRET Assay (primary PPI inhibition). In kind it is binding. The following applies: 60 min incubation; read-out: BCLxL (IC50 code, BCL-XL TR-FRET). As for the experimental part:
BCL-XL TR-FRET Assay (BPS Bioscience, #50223) Assay Condition: The following assay concentrations and times were used: 10.5 ng BCL-XL, 5 ul of 1:100 anti-His Tb-labeled donor, 5 ul of 1:100 Dye-labeled acceptor, 5 ul of 1:80 BCL-XL Peptide Ligand, and 2 ul of test compound, with 60 min incubation time. The results of the assay were read using a Clariostar (BMG Labtech) plate reader with the following parameters: TR FRET, 340 ex/620 and 665 em; 60 μsec Delay; and 500 μsec integration.

Usually CC50 stands for the concentration at which the toxic effect on the cells reaches its halfway point. For `CC(C)C(=O)N1C[C@H](CN2CCN(c3ccc(C(=O)NS(=O)(=O)c4ccc(NCC5CCOCC5)c([N+](=O)[O-])c4)c(Oc4cnc5[nH]ccc5c4)c3)CC2)[C@@H](c2ccc(Cl)cc2)C1` [Compound 30, 4-[4-[[(3S,4S)-4-(4-chlorophenyl)-1-(2-methylpropanoyl)pyrrolidin-3-yl]methyl]piperazin-1-yl]-N-[3-nitro-4-(tetrahydropyran-4-ylmethylamino)phenyl]sulfonyl-2-(1H-pyrrolo[2,3-b]pyridin-5-yloxy)benzamide], the 50% cytotoxic concentration (CC50) at 3 days in data set [1] is above 25 µM. The CC50 with MOLT-4 cells was 2 to 10 µM; in the data set on RS4-11 cells, above 0.2 µM. Moreover, in data set [2], the EC50 is above 0.25 µM.

A word on the IC50: it is the point on the concentration scale where inhibition reaches its midpoint. With `O=C(NS(=O)(=O)c1ccc(NCC2CCOCC2)c([N+](=O)[O-])c1)c1ccc(N2CCN(C(c3ccccc3)c3ccccc3)CC2)cc1Oc1ccc2[nH]ccc2c1` [Compound 19, 4-(4-benzhydrylpiperazin-1-yl)-2-(1H-indol-5-yloxy)-N-[3-nitro-4-(tetrahydropyran-4-ylmethylamino)phenyl]sulfonyl-benzamide], the CC50 at 3 days in data set [1] was above 25 µM. In addition, the CC50 in the data set on MOLT-4 cells was above 10 µM; in the data set on RS4-11 cells, above 0.2 µM. Moreover, the IC50 is above 0.05 µM on BCL-2 and above 4 µM at BCL-XL.

Take `O=C(NS(=O)(=O)c1ccc(NCC2CCOCC2)c([N+](=O)[O-])c1)c1ccc(N2CCN(C[C@@H]3CC(F)CN3c3ccc(Cl)cc3)CC2)cc1Oc1cnc2[nH]ccc2c1` (stereo partly drawn) [Compound 66, 4-[4-[[(2S)-1-(4-chlorophenyl)-4-fluoro-pyrrolidin-2-yl]methyl]piperazin-1-yl]-N-[3-nitro-4-(tetrahydropyran-4-ylmethylamino)phenyl]sulfonyl-2-(1H-pyrrolo[2,3-b]pyridin-5-yloxy)benzamide]: in data set [1], the half-maximal cytotoxic concentration (CC50) at 3 days lay within 10 to 25 µM. Moreover, the CC50 in the data set on MOLT-4 cells is 2 to 10 µM; in the data set on RS4-11 cells it was above 0.2 µM. Moreover, the figures for the IC50 at BCL-2 and on BCL-XL were above 0.05 µM and above 4 µM, respectively.

On to `O=C(NS(=O)(=O)c1ccc(NCC2CCOCC2)c([N+](=O)[O-])c1)c1ccc(N2CCC(CN3C(=O)C4(CCCC4)C3c3ccc(Cl)cc3)CC2)cc1Oc1cnc2[nH]ccc2c1` (centres unmarked) [Compound 1, 4-[4-[[1-(4-chlorophenyl)-3-oxo-2-azaspiro[3.4]octan-2-yl]methyl]-1-piperidyl]-N-[3-nitro-4-(tetrahydropyran-4-ylmethylamino)phenyl]sulfonyl-2-(1H-pyrrolo[2,3-b]pyridin-5-yloxy)benzamide], for which the CC50 at 3 days in data set [1] was above 25 µM. For the same molecule, the values for the CC50 in the data set with MOLT-4 cells and in the data set with RS4-11 cells were 2 to 10 µM and above 0.2 µM, respectively. Besides, the IC50 on BCL-2 is 0.01 to 0.05 µM; at BCL-XL it was above 4 µM.

As for `C[C@]1(O)CC[C@H](CN2CCN(c3ccc(C(=O)NS(=O)(=O)c4ccc(NCC5CCOCC5)c([N+](=O)[O-])c4)c(Oc4cnc5[nH]ccc5c4)c3)CC2)[C@@H](c2ccc(Cl)cc2)C1` [Compound 74, 4-[4-[[(1S,2S,4S)-2-(4-chlorophenyl)-4-hydroxy-4-methyl-cyclohexyl]methyl]piperazin-1-yl]-N-[3-nitro-4-(tetrahydropyran-4-ylmethylamino)phenyl]sulfonyl-2-(1H-pyrrolo[2,3-b]pyridin-5-yloxy)benzamide], in data set [1], the half-maximal cytotoxic concentration (CC50) at 3 days lay in the range of 10 to 25 µM. Also, the 50% cytotoxic concentration (CC50) is 2 to 10 µM with MOLT-4 cells and above 0.2 µM in the data set with RS4-11 cells. Also, the IC50 at BCL-2 was 0.01 to 0.05 µM; at BCL-XL, 2 to 4 µM.

Regarding `O=C(NS(=O)(=O)c1ccc(NCC2CCOCC2)c([N+](=O)[O-])c1)c1ccc(N2CCN(CC3CCC=CC3c3ccc(Cl)cc3)CC2)cc1Oc1cnc2[nH]ccc2c1` (centres unmarked) [Compound 67, 4-[4-[[2-(4-chlorophenyl)cyclohex-3-en-1-yl]methyl]piperazin-1-yl]-N-[3-nitro-4-(tetrahydropyran-4-ylmethylamino)phenyl]sulfonyl-2-(1H-pyrrolo[2,3-b]pyridin-5-yloxy)benzamide], the EC50 in data set [2] was above 0.25 µM. The IC50 on BCL-2 is 0.01 to 0.05 µM.

In the case of `Cn1ncc(Oc2cc(N3CCC(CN4CCCCC4c4ccc(Cl)cc4)CC3)ccc2C(=O)NS(=O)(=O)c2ccc(NCC3CCOCC3)c([N+](=O)[O-])c2)cc1=O` (centres unmarked) [Compound 65, 4-[4-[[2-(4-chlorophenyl)-1-piperidyl]methyl]-1-piperidyl]-2-(1-methyl-6-oxo-pyridazin-4-yl)oxy-N-[3-nitro-4-(tetrahydropyran-4-ylmethylamino)phenyl]sulfonyl-benzamide], the CC50 at 3 days in data set [1] was in the range of 10 to 25 µM. Moreover, the half-maximal cytotoxic concentration (CC50) in the data set with MOLT-4 cells was above 10 µM; in the data set with RS4-11 cells, above 0.2 µM. Further, the IC50 at BCL-2 was above 0.05 µM; at BCL-XL, above 4 µM.

Consider `O=C(NS(=O)(=O)c1ccc(NCC2CCOCC2)c([N+](=O)[O-])c1)c1ccc(N2CCN(C(c3ccccc3)c3ccc(F)cc3)CC2)cc1Oc1ccc2[nH]ccc2c1` (centres unmarked) [Compound 12, 4-[4-[(4-fluorophenyl)-phenyl-methyl]piperazin-1-yl]-2-(1H-indol-5-yloxy)-N-[3-nitro-4-(tetrahydropyran-4-ylmethylamino)phenyl]sulfonyl-benzamide], for which, in data set [1], the CC50 at 3 days was above 25 µM. In addition, the CC50 in the data set with MOLT-4 cells was above 10 µM; with RS4-11 cells it was above 0.2 µM. In addition, the IC50 on BCL-2 was above 0.05 µM; at BCL-XL, above 4 µM.

For `O=C(NS(=O)(=O)c1ccc(NCC2CCOCC2)c([N+](=O)[O-])c1)c1ccc(N2CCN(C[C@H]3[C@H](c4ccc(Cl)cc4)[C@@H]4C=C[C@H]3C4)CC2)cc1Oc1cnc2[nH]ccc2c1` [Compound 68, 4-[4-[[(1R,2R,3R,4S)-3-(4-chlorophenyl)-2-bicyclo[2.2.1]hept-5-enyl]methyl]piperazin-1-yl]-N-[3-nitro-4-(tetrahydropyran-4-ylmethylamino)phenyl]sulfonyl-2-(1H-pyrrolo[2,3-b]pyridin-5-yloxy)benzamide], the CC50 at 3 days in data set [1] was in the range of 10 to 25 µM. The results for the CC50 in the data set with MOLT-4 cells and in the data set with RS4-11 cells were 2 to 10 µM and above 0.2 µM, respectively. For the same molecule, the IC50 is above 0.05 µM at BCL-2 and above 4 µM on BCL-XL.

As to `O=C(NS(=O)(=O)c1ccc(NCC2CCOCC2)c([N+](=O)[O-])c1)c1ccc(N2CCC(CN3CCCCC3c3ccc(Cl)cc3)CC2)cc1Oc1cncc(CO)c1` (centres unmarked) [Compound 64, 4-[4-[[2-(4-chlorophenyl)-1-piperidyl]methyl]-1-piperidyl]-2-[[5-(hydroxymethyl)-3-pyridyl]oxy]-N-[3-nitro-4-(tetrahydropyran-4-ylmethylamino)phenyl]sulfonyl-benzamide], the CC50 at 3 days in data set [1] lay within 10 to 25 µM. Further, the CC50 is above 10 µM with MOLT-4 cells and above 0.2 µM in the data set with RS4-11 cells. The figures for the IC50 at BCL-2 and at BCL-XL were above 0.05 µM and above 4 µM, respectively.

Consider `O=C1CC[C@]2(c3ccc(Cl)cc3)C[C@@]2(CN2CCN(c3ccc(C(=O)NS(=O)(=O)c4ccc(NCC5CCOCC5)c([N+](=O)[O-])c4)c(Oc4cnc5[nH]ccc5c4)c3)CC2)C1` [Compound 77, 4-[4-[[(1R,6R)-6-(4-chlorophenyl)-3-oxo-norcaran-1-yl]methyl]piperazin-1-yl]-N-[3-nitro-4-(tetrahydropyran-4-ylmethylamino)phenyl]sulfonyl-2-(1H-pyrrolo[2,3-b]pyridin-5-yloxy)benzamide], for which, in data set [1], the CC50 at 3 days is 10 to 25 µM. For the same molecule, the CC50 with MOLT-4 cells was 2 to 10 µM; in the data set on RS4-11 cells it was above 0.2 µM. Moreover, the IC50 on BCL-2 was above 0.05 µM; on BCL-XL, above 4 µM.

Take `O=C(NS(=O)(=O)c1ccc(NCC2CCOCC2)c([N+](=O)[O-])c1)c1ccc(N2CCC(CN3CCCCC3c3ccc(Cl)cc3)CC2)cc1Oc1cccc(F)c1` (centres unmarked) [Compound 62, 4-[4-[[2-(4-chlorophenyl)-1-piperidyl]methyl]-1-piperidyl]-2-(3-fluorophenoxy)-N-[3-nitro-4-(tetrahydropyran-4-ylmethylamino)phenyl]sulfonyl-benzamide]: in data set [1], the CC50 at 3 days lay in the range of 10 to 25 µM. Besides, the 50% cytotoxic concentration (CC50) in the data set with MOLT-4 cells was 2 to 10 µM; in the data set with RS4-11 cells, above 0.2 µM. The IC50 was above 0.05 µM at BCL-2 and at most 2 µM on BCL-XL.
